Read-outs that look alike come from different tables or passages of the source.
Assays:
Format in all cases: cell-based
[1] = system: MCF-7 (human mammary adenocarcinoma); assay: Cytotoxic activity, neutral red assay, MCF-7; conditions: mean ± SEM
Method: (§1) The isolated compounds were resuspended in dimethyl sulfoxide (DMSO) to a final concentration of 25 mg/mL (stock solution), subsequent dilutions between 250 and 31 μg/mL were used for cytotoxicity assays. The cytotoxic activity was determined by neutral red assay, initially against the adherent cell lines 4T1 (mouse mammary tumor) and MCF-7 (human mammary adenocarcinoma) followed by H17 y TSA (murine breast cancer), MES SA PGP (+) y MES SA PGP (–) (human uterus sarcome), B16 (murine melanoma), MCA 38 (murine colon), 3T3 (murine fibroblats) y K562-ATCC, U937 y HL-60/MX2 (myeloid acute leukemia cell line) as described by Díaz-Cárdenas et al., 2017 [15]. When cultures reached a confluence of 80%, cells were passaged and counted in a Neubauer chamber. Cell viability was estimated in triplicate using the trypan blue assay. The percentage of viability was calculated as absorbance of the vehicle/absorbance of the treatment per 100. Inhibitory concentration 50 (IC50) values were defined as the concentration of the extracts that generated 50% inhibition of tumor cell growth. IC50 values were calculated with three or four parameter nonlinear regression curves using GraphPad Prism software (GraphPad Software, Inc., San Diego, CA, USA). IC50 values are presented as the mean ± standard error of mean (SEM). The selectivity index was calculated using the formula: IC50 Fibroblasts/IC50 tumor cell. A potential against tumor cell lines was considered when the selectivity was greater than 1.
(§2) The solvent used in the reconstitution of the extract (DMSO) was evaluated as a negative control for each test in the same volume as the extracts. Doxorubicin at a maximum concentration of 5 μM was used as a positive control.

[2] = system: 4T1 (mouse mammary tumor); assay: Cytotoxic activity, neutral red assay, 4T1; conditions: mean ± SEM
Method: as §1, §2

3T3 (murine fibroblast) = assay: Cytotoxic activity, neutral red assay, 3T3 normal fibroblasts; conditions: 3T3, murine fibroblast (normal cells); mean ± SEM; read-out: Cytotoxic Activity of Fractions IC50
Method: as §1, with “Inhibitory concentration 50 (IC50) values were defined as the concentration of the extracts that generated 50% inhibition of tumor cell growth.” left out, “IC50 values are presented as the mean ± standard error of mean (SEM).” left out, “A potential against tumor cell lines was considered when the selectivity was greater than 1.” left out
(§3) The solvent used in the reconstitution of the extract (DMSO) was evaluated as a negative control for each test in the same volume as the extracts. […]

[3] = system: TSA (murine breast cancer); assay: Cytotoxic activity, neutral red assay, TSA; conditions: mean ± SEM, read-out: Cytotoxic Activity of Fractions IC50
Method: as §1, with “Inhibitory concentration 50 (IC50) values were defined as the concentration of the extracts that generated 50% inhibition of tumor cell growth.” left out, “IC50 values are presented as the mean ± standard error of mean (SEM).” left out, “A potential against tumor cell lines was considered when the selectivity was greater than 1.” left out
as §3

[4] = system: U937 (myeloid acute leukemia); assay: Cytotoxic activity, neutral red assay, U937
Method: as §1, with “Inhibitory concentration 50 (IC50) values were defined as the concentration of the extracts that generated 50% inhibition of tumor cell growth.” left out, “IC50 values are presented as the mean ± standard error of mean (SEM).” left out, “A potential against tumor cell lines was considered when the selectivity was greater than 1.” left out
as §3

[5] = system: 4T1 H17 (murine breast cancer, high ALDH expression); assay: Cytotoxic activity, neutral red assay, 4T1 H17; conditions: mean ± SEM
Method: as §1, with “Inhibitory concentration 50 (IC50) values were defined as the concentration of the extracts that generated 50% inhibition of tumor cell growth.” left out, “IC50 values are presented as the mean ± standard error of mean (SEM).” left out, “A potential against tumor cell lines was considered when the selectivity was greater than 1.” left out
as §3

[6] = system: MES–SA/DX5P-Pgp (+) (human uterus sarcome); assay: Cytotoxic activity, neutral red assay, MES-SA/DX5 Pgp (+)
Method: as §1, with “Inhibitory concentration 50 (IC50) values were defined as the concentration of the extracts that generated 50% inhibition of tumor cell growth.” left out, “IC50 values are presented as the mean ± standard error of mean (SEM).” left out, “A potential against tumor cell lines was considered when the selectivity was greater than 1.” left out
as §3

3LL (lung cancer) = assay: Cytotoxic activity, neutral red assay, 3LL; conditions: mean ± SEM
MCA 38 (murine colon) = assay: Cytotoxic activity, neutral red assay, MCA 38; conditions: mean ± SEM
Method: as §1, with “Inhibitory concentration 50 (IC50) values were defined as the concentration of the extracts that generated 50% inhibition of tumor cell growth.” left out, “IC50 values are presented as the mean ± standard error of mean (SEM).” left out, “A potential against tumor cell lines was considered when the selectivity was greater than 1.” left out
as §3

B16 (murine melanoma) = assay: Cytotoxic activity, neutral red assay, B16; conditions: mean ± SEM, read-out: Cytotoxic Activity of Fractions IC50
Method: as §1, with “Inhibitory concentration 50 (IC50) values were defined as the concentration of the extracts that generated 50% inhibition of tumor cell growth.” left out, “IC50 values are presented as the mean ± standard error of mean (SEM).” left out, “A potential against tumor cell lines was considered when the selectivity was greater than 1.” left out
as §3

[7] = system: K562 (myeloid acute leukemia); assay: Cytotoxic activity, neutral red assay, K562
Method: as §1, with “Inhibitory concentration 50 (IC50) values were defined as the concentration of the extracts that generated 50% inhibition of tumor cell growth.” left out, “IC50 values are presented as the mean ± standard error of mean (SEM).” left out, “A potential against tumor cell lines was considered when the selectivity was greater than 1.” left out
as §3

[8] = listed as compound 1, read-out: Cytotoxic Activity of Fractions IC50
[9] = read-out: Cytotoxic Activity of Fractions IC50

SMILES	IC50 [1] [µM]	IC50 ([1]; listed as compound 2) [µM]	IC50 [2] [µM]	IC50 ([2]; listed as compound 2) [µM]	IC50 (3T3 (murine fibroblast)) [µM]	IC50 ([1]; listed as compound 1) [µM]	IC50 [3] [µM]	IC50 ([2]; listed as compound 1) [µM]	cytotoxic activity (in words) [4]	IC50 [5, 8] [µM]	IC50 [5, 9] [µM]	Selectivity Index (SI) ([6]; IC50 fibroblasts (3T3)/IC50 MES-SA/DX5 Pgp (+))	IC50 ([6]; MES-SA/DX5 Pgp (+), human uterus sarcoma, mean ± SEM, read-out: Cytotoxic Activity of Fractions IC50) [µM]	IC50 (3LL (lung cancer); [8]) [µM]	IC50 (3LL (lung cancer); [9]) [µM]	IC50 (MCA 38 (murine colon); [8]) [µM]	IC50 (MCA 38 (murine colon); [9]) [µM]	IC50 (B16 (murine melanoma)) [µM]	cytotoxic activity (in words) [7]
O=C1N[C@@H](Cc2ccc(O)cc2)C(=O)N[C@H]1Cc1ccccc1 [Compound 2, cyclo (L-Tyr-L-Phe)]	890.5 ± 3.45	> 250	875.9 ± 5.14	> 250	–	–	–	–	–	–	–	–	–	–	–	–	–	–	–
O=C1N[C@@H](Cc2ccc(O)cc2)C(=O)N2CCC[C@@H]12 [Compound 1, cyclo (L-Pro-L-Tyr)]	87.7 ± 2.32	–	57.1 ± 2.11	–	314 ± 3.41	< 88	197 ± 4.18	< 88	no activity was detected	< 40	40.4 ± 1.94	1.39	225.3 ± 1.23	< 51.7	51.7 ± 0.55	< 40	29.9 ± 1.55	80.9 ± 3.67	no activity was detected

— PMC7321072, “Bioactive Potential of Extracts of Labrenzia aggregata Strain USBA 371, a Halophilic Bacterium Isolated from a Terrestrial Source” (Molecules, 2020)
